Test [1] has as its system NAcC D2-MSNs. Nature of the test: electrically evoked EPSCs, whole-cell voltage clamp, NAcC D2-MSNs. In kind it is cell-based, mice. The conditions noted are these: for EPSC amplitude, %baseline (block of stimulation-induced LLP) / EPSC amplitude, %baseline (block of substance-P-induced potentiation) / EPSC amplitude, %baseline (block of stimulation-induced potentiation): mean ± SEM; for effect of antagonist alone on synaptic properties: absence of other stimuli, Figures S2C–S2F.

Test [2] relates to NAcC D2-MSNs. Nature of the test: paired pulse ratios, NAcC D2-MSNs. The conditions noted are these: D1-MSN 50-Hz stimulation with inhibitor; Figures S7A–S7D. In kind it is cell-based, mice.
Test [3] has as its system AMPAR currents on NAcC D2-MSNs. Nature of the test: AMPAR current-voltage relationship. In kind it is cell-based, mice. The note with it: +40 mV; for inward rectification of AMPAR currents caused by stimulation: D1-MSN 50-Hz stimulation with inhibitor, Figures 7B, 7D, 7F, 7H.
The target in test [4] is neurokinin 1 receptor (NK1R) (Homo sapiens, UniProt P25103). Put plainly: BRET assay, antagonist mode. In kind it is biochemical. The conditions noted are these: antagonist added 15 min before 100 nM substance P, Figure S4G. (BRET reads energy transfer from a luciferase to a nearby fluorophore.)
Sequence of neurokinin 1 receptor (NK1R) (P25103 whole entry, species assumed): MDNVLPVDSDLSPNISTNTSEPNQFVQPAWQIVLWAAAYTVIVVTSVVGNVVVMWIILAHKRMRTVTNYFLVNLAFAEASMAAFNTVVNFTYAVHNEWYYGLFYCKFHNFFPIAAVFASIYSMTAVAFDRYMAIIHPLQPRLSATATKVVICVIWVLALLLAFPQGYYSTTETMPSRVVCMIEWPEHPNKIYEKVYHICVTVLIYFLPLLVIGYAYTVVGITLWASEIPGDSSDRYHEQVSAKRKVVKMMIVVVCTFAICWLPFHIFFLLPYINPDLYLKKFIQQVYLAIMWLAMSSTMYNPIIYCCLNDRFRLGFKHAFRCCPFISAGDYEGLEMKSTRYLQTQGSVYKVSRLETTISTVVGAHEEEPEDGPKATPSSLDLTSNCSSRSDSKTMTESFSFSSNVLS
Sequence of neurokinin 1 receptor (NK1R) (P50148 whole entry partner, species assumed): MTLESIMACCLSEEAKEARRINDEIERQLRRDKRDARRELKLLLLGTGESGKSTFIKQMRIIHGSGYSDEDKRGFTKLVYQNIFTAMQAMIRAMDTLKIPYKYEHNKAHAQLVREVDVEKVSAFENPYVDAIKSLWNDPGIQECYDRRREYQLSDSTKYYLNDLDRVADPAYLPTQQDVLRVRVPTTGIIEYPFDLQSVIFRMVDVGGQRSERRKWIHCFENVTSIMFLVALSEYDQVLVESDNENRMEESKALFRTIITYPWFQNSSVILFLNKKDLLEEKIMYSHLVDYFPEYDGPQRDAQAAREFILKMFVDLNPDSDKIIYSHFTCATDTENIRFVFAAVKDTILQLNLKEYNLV
A further test has as its system NAcC ChAT neurons. Nature of the test: ChAT neuron firing rate. In kind it is cell-based, mice. The conditions noted are these: for spontaneous ChAT firing rate in the absence of substance P: L-733,060 10 μM or aprepitant 1 μM, Figure S4I; for stimulation-enhanced ChAT firing rate: 50-Hz D1-MSN stimulation; for substance-P-enhanced ChAT firing rate: substance P 100 nM.

The next test has as its system NAcS D2-MSNs. Put plainly: electrically evoked EPSCs, whole-cell voltage clamp, NAcS D2-MSNs. Format: cell-based, mice. The note with it: D1-MSN 50-Hz stimulation.

For the compound `O=C(O)CN(CC(=O)O)c1ccccc1OCCOc1ccccc1N(CC(=O)O)CC(=O)O` [BAPTA, 1,2-bis(o-aminophenoxy)ethane-N,N,N′,N′-tetra-acetic acid], in the test on NAcC D2-MSNs [1] (BAPTA 10 mM internal, D1-MSN 50-Hz stimulation, Figure 7E), the cells potentiated was 3/9. In addition, the “paired pulse ratio change after stimulation” value (shortened to “paired pulse ratio change”) with NAcC D2-MSNs [2] is “lack of ability to detect a change in PPR”.

Turning to `CC(=O)C1=C(O)[C@@H]2[C@H]3c4c[nH]c5cccc(c45)C[C@H]3C(C)(C)N2C1=O` [CPA, cyclopiazonic acid], in the test with NAcC D2-MSNs [1] (CPA, depletion of calcium stores, D1-MSN 50-Hz stimulation, n = 8, p > 0.05, Figure 7G), the “EPSC amplitude, %baseline (block of stimulation-induced LLP)” value is given as 80.18% ± 7.07%. Also, the “inward rectification of AMPAR currents caused by stimulation” value in test [3] was “prevented inward rectification”. For the same compound, in the test on NAcC D2-MSNs [2], the “paired pulse ratio change” value is “significantly increased”.

As to `Cl.FC(F)(F)c1cc(CO[C@H]2CCCN[C@H]2c2ccccc2)cc(C(F)(F)F)c1` [L-733,060], the “concentration of maximal inhibition of receptor activity” value in test [4] is roughly 10 µM. Moreover, the “spontaneous ChAT firing rate in the absence of substance P” value in the test with NAcC ChAT neurons is “did not have effects on spontaneous ChAT firing rate”. Further, the “stimulation-enhanced ChAT firing rate” value in the test with NAcC ChAT neurons (L-733,060 10 μM, Figure S5C) is given as “blocked”. Moreover, in the test on NAcC ChAT neurons (L-733,060 10 μM, Figures 4F, 4G), the “substance-P-enhanced ChAT firing rate” value is given as “suppressed”. Besides, the “concentration of maximal inhibition of enhanced ChAT firing” value in the test with NAcC ChAT neurons (against 100 nM substance P, Figure 4E) is 10 µM. Moreover, in the test on NAcC D2-MSNs [1] (L-733,060 10 μM with substance P bath application, n = 9, p > 0.05, Figure 2B), the “EPSC amplitude, %baseline (block of substance-P-induced potentiation)” value is 101.1% ±7.07%. For the same compound, in the test on NAcC D2-MSNs [1] (L-733,060, 5 min of NAcC D1-MSN 50-Hz stimulation, transient depression, Figure S2B), the “EPSC amplitude, %baseline (block of stimulation-induced potentiation)” value is 79.52% ± 8.22%. The “effect of antagonist alone on synaptic properties” value in the test on NAcC D2-MSNs [1] is “neither L-733,060 nor aprepitant altered synaptic properties”.

For the compound `CC[C@H](NC(=O)c1c(C)c(-c2ccccc2)nc2ccccc12)c1ccccc1` [SB-2220], the “substance-P-enhanced ChAT firing rate, further block” value with NAcC ChAT neurons (addition of 1 μM NK3R antagonist SB-2220, Figure S4J) is “not blocked any further”.

Consider `COc1ccc2c(c1)CC[C@@H]1[C@@H]2CC[C@]2(C)[C@@H](NCCCCCCN3C(=O)C=CC3=O)CC[C@@H]12` [U-73122], for which the “EPSC amplitude, %baseline (block of stimulation-induced LLP)” value in the test on NAcC D2-MSNs [1] (U-73122 3 μM, D1-MSN 50-Hz stimulation, n = 9, p < 0.05, Figure 7C) was 66.06% ± 8.70%. Moreover, in test [3], the “inward rectification of AMPAR currents caused by stimulation” value is “prevented inward rectification”. The “paired pulse ratio change” value in the test on NAcC D2-MSNs [2] is recorded as “significantly increased”.

As for `CC[N+](CC)(CCNC(=O)C(=O)NCC[N+](CC)(CC)Cc1ccccc1Cl)Cc1ccccc1Cl` [ambenonium], in the test on NAcS D2-MSNs (ambenonium 40 nM (acetylcholinesterase block), Figure S6G), the “stimulation-induced depression on NAcS D2-MSNs” value is listed as “did not alleviate the depression”.

For the compound `C[C@@H](O[C@H]1OCCN(Cc2n[nH]c(=O)[nH]2)[C@H]1c1ccc(F)cc1)c1cc(C(F)(F)F)cc(C(F)(F)F)c1` [aprepitant], the “concentration of maximal inhibition of receptor activity” value in test [4] was roughly 10 µM. The “spontaneous ChAT firing rate in the absence of substance P” value in the test on NAcC ChAT neurons is “did not have effects on spontaneous ChAT firing rate”. Moreover, the “stimulation-enhanced ChAT firing rate” value with NAcC ChAT neurons (aprepitant 1 μM, n = 13, p > 0.05, Figure 5B) is reported as “suppressed, but not completely blocked”. Also, the “substance-P-enhanced ChAT firing rate” value in the test on NAcC ChAT neurons (aprepitant 1 μM, Figure S4H) is listed as “suppressed”. Also, the “effect of antagonist alone on synaptic properties” value in the test on NAcC D2-MSNs [1] is listed as “neither L-733,060 nor aprepitant altered synaptic properties”. The “EPSC amplitude, %baseline (block of stimulation-induced potentiation)” value in the test with NAcC D2-MSNs [1] (aprepitant 1 μM, single 5-s, 50-Hz train of D1-MSN stimulation, n = 8, p > 0.05, Figure 2G) was 98.02% ± 10.73%.

For `Oc1ccc2c3c1O[C@H]1c4[nH]c5c(c4C[C@@]4(O)[C@@H](C2)N(CC2CC2)CC[C@]314)C[C@@]1(O)[C@H]2Cc3ccc(O)c4c3[C@@]1(CCN2CC1CC1)[C@H]5O4` [norbinaltorphimine], the “EPSC amplitude, %baseline (stimulation-induced depression)” value in the test on NAcS D2-MSNs (norbinaltorphimine 400 nM, mean ± SEM, Figure S1H) was 61.56% ± 10.78%.

For `CN1CCN(CC(=O)N2c3ccccc3C(=O)Nc3cccnc32)CC1` [pirenzepine], the “ChAT firing rate at baseline and its enhancement due to substance P” value with NAcC ChAT neurons (pirenzepine, Figures S6C, S6D) is given as “neither affected ChAT firing rate at baseline nor the enhancement in firing frequency due to substance P”. Moreover, the “EPSC amplitude, %baseline (block of substance-P-induced potentiation)” value in the test with NAcC D2-MSNs [1] (pirenzepine 1 μM, substance P 100 nM, Figures 6A, S6B) was 103.1% ± 12.95%; in the test on NAcC D2-MSNs [1] (pirenzepine 1 μM, substance P 1 μM, Figures 6A, S6B), 89.88% ± 9.14%. Also, the “synaptic properties in D2-MSNs” value in the test with NAcC D2-MSNs [1] (pirenzepine alone, Figure S6E) was “did not affect synaptic properties”. In addition, the “AMPAR inward rectification caused by substance P or 50 Hz stimulation” value in test [3] (pirenzepine, Figures 6C, 6D) is listed as “prevented this rectification”.

Consider picrotoxin, for which, in the test on NAcC ChAT neurons (picrotoxin, on average, Figure S5F), the “increase in baseline ChAT firing frequency” value was determined as 1.37 ± 0.66 Hz.
